Columns and labels:
[1] = tested on: A3G-Luc; test: A3G-Luc luciferase screen in 293T cells stably expressing A3G-Luc; format: cell-based, human; details: 10 μM, 48 hrs, DMSO = 100%
Excerpt: This background led to construction of cell lines to use in a search for compounds that might boost levels of A3s in the HIV target cells of the majority of HIV-infected persons who are non-controllers. The goal is to test a strategy of using such a booster in acute/early infection to prevent the hypothesized decrease of A3G and related A3s in an effort to increase “control” in persons lacking HLA B57/27-associated control. […] 293T and TZM-bl cells were maintained in DMEM (containing 4.5 g/liter glucose, L-glutamine, and sodium pyruvate) medium plus 10% fetal bovine serum, 50 IU/ml penicillin, and 50 μg/ml streptomycin at 37° C. and 5% CO2 throughout the experiments. […]. After collecting viral supernatant, 293T cells were infected with viral particles harboring the A3G-Luc expressing vector and selected with puromycin (0.75 μg/ml) for three days. Ten single cell clones of stable cells were isolated and tested for expression of A3G-Luc protein by both immunoblotting using antibody against A3G and measuring luciferase activity. Expressions in cell lines used for subsequent experiments are depicted in FIG. 2, upper panel. The A3G-Luc fusion protein was sensitive to Vif-mediated degradation (FIG. 3). Similar cells lines stably expressing A3F were constructed with the same methods (not shown).
To screen compounds that can boost A3G levels, 293T cells (25,000 cells per well in 96-well plate) stably expressing A3G-Luc protein or A3G-Luc/Vif proteins were plated. […] After 48 hrs of incubation with compounds culture medium was removed from each well and replaced with 100 μl of Britelite Plus luciferase assay substrate (PerkinElmer). Following 5 min. of incubation at room temperature, 75 μl of each cell lysate was transferred to a 96-well OptiPlate 96 (PerkinElmer) and luminescence was measured in a VICTOR X2 Multilabel Reader (PerkinElmer). Relative activity of compounds for their boosting capability A3G-Luc activity was calculated by plotting DMSO-treated A3G-Luc or A3G-Luc/Vif cells as 100%. Cellular cytotoxicity was measured by counting number of cells after 48 hrs of incubation with compounds compared to DMSO treated cells.

[2] = tested on: A3G-Luc/Vif; test: A3G-Luc/Vif luciferase screen in 293T cells stably co-expressing A3G-Luc and HIV-1 Vif; format: cell-based, human; details: 10 μM, 48 hrs, DMSO = 100%
Description: FIG. 6. 293T cell clone #6 stably co-expressing A3G-Luciferase fusion protein together with HIV-1 Vif was used. Small molecule compounds were tested for their effects on stability of A3G and inhibition of Vif activity against A3G by measuring luciferase activity, relative to treatment with control DMSO only. The relative % luciferase activity was higher after treatment with NU compounds than DMSO.
[…]. After sorting, expression of both A3G-Luc and Vif was confirmed by immunoblotting using antibody against both A3G and Vif.
To screen compounds that can boost A3G levels, 293T cells (25,000 cells per well in 96-well plate) stably expressing A3G-Luc protein or A3G-Luc/Vif proteins were plated. After 24 hrs post plating culture medium was replaced with 100 μl of new medium containing either DMSO as a control or various compounds (10 μM concentration). After 48 hrs of incubation with compounds culture medium was removed from each well and replaced with 100 μl of Britelite Plus luciferase assay substrate (PerkinElmer). Following 5 min. of incubation at room temperature, 75 μl of each cell lysate was transferred to a 96-well OptiPlate 96 (PerkinElmer) and luminescence was measured in a VICTOR X2 Multilabel Reader (PerkinElmer). Relative activity of compounds for their boosting capability A3G-Luc activity was calculated by plotting DMSO-treated A3G-Luc or A3G-Luc/Vif cells as 100%. Cellular cytotoxicity was measured by counting number of cells after 48 hrs of incubation with compounds compared to DMSO treated cells.

[3] = tested on: Wild-type HIV-1; test: A3G-mediated restriction of wild-type HIV-1; virus from 293T stably expressing A3G, TZM-bl readout; format: cell-based; details: Human immunodeficiency virus 1, HEK-293T, read-out: A3G-mediated Restriction by Compounds on Wild-type HIV-1 (% of HIV replication relative to DMSO treated Control)
Description: To test the effect of compounds shown to boost A3G-Luc levels in our screening systems on inhibition of wild-type HIV-1 replication by A3G or A3F, 293T cell lines stably expressing A3G or A3F were plated (750,000 cells per well in 6-well plate). At 24 hrs post plating, 1.5 μg of a wild-type (Vif-positive) HIV-1 proviral vector, NL4.3, was transfected into the 293T stable cell lines expressing either A3G or A3F. At 4 hrs post transfection, either DMSO as a control or an individual compound from series described below was added into the culture medium at a 10 μM concentration. At 1 day post transfection, supernatant fluids containing viral particles were filtered through […] filter to remove cellular debris. To test the effect of compound on HIV-1 replication, TZM-bl indicator cells were plated at a density of 10,000 cells/well in a 96 well culture plate 24 hrs prior to infection. TZM-bl indicator cells express luciferase gene under the control of HIV LTR promoter and are routinely used to measure HIV-1 replication capability. On the day of infection, the culture medium was removed and the cells inoculated with equal amount of HIV-1 particles in triplicate with 100 μl of viral supernatants in culture medium containing 20 μg/ml DEAE-dextran. After 24 hrs of incubation, culture medium was removed from each well and replaced with 100 μl of Britelite Plus luciferase assay substrate. Following 5 min. of incubation at room temperature, 75 μl of each cell lysate was transferred to a 96-well OptiPlate 96 and luminescence was measured in a VICTOR X2 Multilabel Reader as described above. Relative infectivity was calculated by plotting luciferase activity from viral particle from DMSO treated A3G or A3F cell lines as 100%. We only tested effect A3F- or A3G mediated restriction of HIV-1 replication by compounds boosting luciferase activity by more than 160% compared to DMSO control sample.

SMILES | A3G-Luc Activity (% of Relative Light Units compared to DMSO treated control) [1] [%] | Vif-A3G-Luc Activity (% of RLUs compared to DMSO treated control) [2] [%] | activity at 10 µM [3] [%]
COc1ccc(C(=O)Nc2ccc3c(c2)OCO3)cc1NC(=O)C(C)C [NU-50] | 115 | 145 | 
O=C(CCCCC1SC[C@@H]2NC(=O)N[C@H]12)NCCOCCOc1ccc(C(=O)Nc2ccc(Cl)c(Cl)c2)cc1NC(=O)CC1CC1 (stereo partly shown) [NU-128] | 141 |  | 62
COc1ccc(C(=O)Nc2ccc(Cl)c(Cl)c2)cc1NC(=O)c1ccc2c(c1)OCO2 [NU-303] | 90 | 71 | 
COc1ccc(C(=O)Nc2ccc(Cl)c(Cl)c2)cc1NC(=O)C1CC1 [NU-304] | 124 | 138 | 
COc1ccc(C(=O)Nc2ccc(Cl)c(Cl)c2)cc1NC(=O)C1CCOCC1 [NU-305] | 121 | 109 | 
COc1ccc(C(=O)Nc2ccc(Cl)c(Cl)c2)cc1NC(=O)c1ccncc1 [NU-306] | 96 | 84 | 
COc1ccc(C(=O)Nc2ccc(Cl)c(Cl)c2)cc1NC(=O)c1cccnc1 [NU-307] | 102 | 91 | 
COc1ccc(C(=O)Nc2ccc(Cl)c(Cl)c2)cc1NC(=O)Cc1ccccc1 [NU-308] | 92 | 113 | 
COc1ccc(C(=O)Nc2ccc(Cl)c(Cl)c2)cc1NC(=O)c1ccccc1 [NU-309] | 100 | 94 | 
COc1ccc(C(=O)Nc2ccc(Cl)c(Cl)c2)cc1NC(=O)CC(C)C [NU-452] | 140 | 110 | 
COc1ccc(C(=O)Nc2ccc(Cl)c(Cl)c2)cc1NC(=O)CC1CCCC1 [NU-453] | 169 | 95 | 
COc1ccc(C(=O)Nc2ccc(Cl)c(Cl)c2)cc1NC(=O)CC1CCCCC1 [NU-454] | 86 | 84 | 
COc1ccc(C(=O)Nc2ccc(Cl)c(Cl)c2)cc1NC(=O)C1CCCC1 [NU-455] | 188 | 131 | 
CCC(C)C(=O)Nc1cc(C(=O)Nc2ccc(Cl)c(Cl)c2)ccc1OC (stereo not shown) [NU-456] | 148 | 113 | 
CCC(C)(C)C(=O)Nc1cc(C(=O)Nc2ccc(Cl)c(Cl)c2)ccc1OC [NU-457] | 120 | 93 | 
COc1ccc(C(=O)Nc2ccc(Cl)c(Cl)c2)cc1NC(=O)C1C2CC3CC(C2)CC1C3 (stereo not shown) [NU-459] | 106 | 69 | 
COc1ccc(C(=O)Nc2ccc(Cl)c(Cl)c2)cc1NC(=O)OC(C)C [NU-461] | 124 | 70 | 

SMILES | A3G-Luc Activity (% of Relative Light Units compared to DMSO treated control) [1] [%] | Vif-A3G-Luc Activity (% of RLUs compared to DMSO treated control) [2] [%] | activity at 10 µM [3] [%]
COc1ccc(C(=O)Nc2ccc(Cl)c(Cl)c2)cc1NS(=O)(=O)C1CC1 [NU-469] | 100 | 82 | 
COc1ccc(C(=O)Nc2ccc(Cl)c(Cl)c2)cc1NS(=O)(=O)C1CCC1 [NU-470] | 100 | 85 | 
COc1ccc(C(=O)Nc2ccc(Cl)c(Cl)c2)cc1NC(=O)N1CCCCC1 [NU-473] | 110 | 84 | 
COc1ccc(C(=O)Nc2ccc(Cl)c(Cl)c2)cc1NC(=O)CC(C)(C)C [NU-474] | 105 | 71 | 
COc1ccc(C(=O)Nc2ccc(F)cc2)cc1NC(=O)C(C)C [NU-564] | 162 | 102 | 72
COc1ccc(C(=O)Nc2ccncc2)cc1NC(=O)C(C)C [NU-565] | 66 | 55 | 
COc1ccc(C(=O)NCc2ccccc2)cc1NC(=O)C(C)C [NU-566] | 106 | 80 | 
COc1ccc(C(=O)NCc2ccc(F)cc2)cc1NC(=O)C(C)C [NU-567] | 93 | 76 | 
COc1ccc(CNC(=O)c2ccc(OC)c(NC(=O)C(C)C)c2)cc1 [NU-568] | 96 | 87 | 
COc1ccc(C(=O)NCc2ccncc2)cc1NC(=O)C(C)C [NU-569] | 98 | 85 | 
COc1ccc(C(=O)N2CCc3ccccc3C2)cc1NC(=O)C(C)C [NU-570] | 96 | 87 | 
COc1ccc(C(=O)Nc2ccc(F)c(F)c2)cc1NC(=O)C(C)C [NU-571] | 116 | 104 | 
COc1ccc(C(=O)Nc2ccc(OC)c(OC)c2)cc1NC(=O)C(C)C [NU-572] | 98 | 91 | 
COc1ccc(C(=O)NC2CCCCC2)cc1NC(=O)C(C)C [NU-573] | 117 | 80 | 
CCCCOc1ccc(C(=O)Nc2ccc(Cl)c(Cl)c2)cc1NC(=O)C1CCC1 [NU-614] | 96 | 99 | 
CCCCOc1ccc(C(=O)Nc2ccc(Cl)c(Cl)c2)cc1NC(=O)CC1CC1 [NU-615] | 102 | 105 | 

— US9688637B2, “3-amidobenzamides and uses thereof for increasing cellular levels of A3G and other A3 family members” (Northwestern University, priority 2014, dated 2017)
